Laboratory results: paper PMC2248166, “Quantitative peptide binding motifs for 19 human and mouse MHC class I molecules derived using positional scanning combinatorial peptide libraries” (Immunome Research, 2008)

Experiments:
[1] = biological target: HLA B*0801 (Homo sapiens, UniProt P01889, A93T/A95T/D138N/E176V/E187T/K202T/Q94N/R180D/S35A/V36M/Y33D/Y91F); assay: biochemical; assay type: binding
[2] = biological target: HLA B*1503 (Homo sapiens, UniProt P01889, A329T/A93T/A95T/C349S/D201E/D98Y/E187L/E204Q/K202T/N87E/Q94N/R155S/R180L/S121R/S35A/V306I/V36M/Y140S/Y91S); assay: biochemical; assay type: binding
[3] = biological target: HLA B*5101 (Homo sapiens, UniProt P01889, A329T/A93T/A95T/C349S/D138N/D201E/D98Y/E187L/E204Q/E69T/G107R/I218V/K202T/L105A/L119W/N104I/Q94N/R106L/R155S/R180L/S101N/S121T/S35A/S48A/V306I/V36M/Y195H/Y91F); assay type: binding
[4] = biological target: HLA A*3201 (Homo sapiens, UniProt P04439, A270S/D101S/D185E/E176V/E277Q/F133L/G103R/G107R/G231S/H175R/I121M/I218V/I322F/K168Q/L105A/L300P/L318F/M331R/P208A/P217A/Q94H/R106L/R138Q/S129P/T104I/T323A/T345S/V100E/V321M/V358M); assay: biochemical; assay type: binding
[5] = biological target: HLA A*6802 (Homo sapiens, UniProt P04439, A269V/D140Y/D185E/E176V/E277Q/E87N/F33Y/G231S/I121R/I166T/I218V/L180W/L300P/L318F/N151K/P208A/P217A/Q86R/R138H/R169H/S129P/T345S/V36M); assay type: binding
[6] = biological target: H-2 K^k (Mus musculus, UniProt P04223); assay type: binding
Sequence of H-2 K^k (P01887 21-119): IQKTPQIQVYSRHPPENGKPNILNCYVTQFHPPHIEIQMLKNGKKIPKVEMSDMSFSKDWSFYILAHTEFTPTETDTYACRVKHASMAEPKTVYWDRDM
Sequence of H-2 K^k (P04223 22-369): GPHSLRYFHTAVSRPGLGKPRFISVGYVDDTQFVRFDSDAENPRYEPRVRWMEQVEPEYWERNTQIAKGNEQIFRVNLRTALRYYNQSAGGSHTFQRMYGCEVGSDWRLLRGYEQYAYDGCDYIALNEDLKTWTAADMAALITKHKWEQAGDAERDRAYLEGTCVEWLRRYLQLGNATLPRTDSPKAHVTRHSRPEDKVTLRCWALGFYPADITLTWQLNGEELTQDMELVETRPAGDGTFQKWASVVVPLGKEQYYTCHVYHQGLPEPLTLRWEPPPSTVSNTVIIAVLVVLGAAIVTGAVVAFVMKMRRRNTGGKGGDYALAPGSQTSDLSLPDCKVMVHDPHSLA

[7] = biological target: HLA B*5801 (Homo sapiens, UniProt P01889, A329T/C349S/D201E/D98Y/E176V/E187L/E204Q/E69T/G107R/I218V/I90N/K202T/L105A/L119I/N104I/N87E/Q89R/Q94S/R106L/R155S/R180L/R86G/S101N/S121R/S35A/S48A/T118I/V127L/V306I/V36M/Y140S/Y91M); assay type: binding
[8] = biological target: HLA A*3001 (Homo sapiens, UniProt P04439, D140H/D185E/E176W/F33S/G80R/H175R/K168Q/R138E/R41S); assay: biochemical; assay type: binding
[9] = biological target: HLA B*1501 (Homo sapiens, UniProt P01889, A329T/A93T/A95T/C349S/D201E/D98Y/E187L/E204Q/E69M/E70A/K202T/N87E/Q94N/R155S/R180W/S121R/S35A/S48A/V306I/V36M/Y140S/Y91S); assay: biochemical; assay type: binding
[10] = biological target: H-2 D^b (Mus musculus, UniProt P01899); assay type: binding
Sequence of H-2 D^b (P01887 21-119): as the sequence (P01887 21-119) above
Sequence of H-2 D^b (P01899 25-362): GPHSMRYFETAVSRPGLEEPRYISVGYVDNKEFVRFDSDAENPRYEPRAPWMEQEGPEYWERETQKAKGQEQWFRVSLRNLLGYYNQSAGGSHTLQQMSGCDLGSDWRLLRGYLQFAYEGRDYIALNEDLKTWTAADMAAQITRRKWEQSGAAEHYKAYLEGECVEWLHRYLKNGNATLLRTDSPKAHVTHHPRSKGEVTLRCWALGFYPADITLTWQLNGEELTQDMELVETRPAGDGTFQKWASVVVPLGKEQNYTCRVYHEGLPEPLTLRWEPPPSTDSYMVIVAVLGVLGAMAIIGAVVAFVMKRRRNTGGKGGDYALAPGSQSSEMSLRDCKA

[11] = biological target: HLA B*5401 (Homo sapiens, UniProt P01889, A329T/C349S/D138N/D201E/E176V/E187T/E204Q/E69G/I76V/K202T/L119W/R155S/R180L/S121T/S35A/S48A/V127L/V306I/V36M/Y140L); assay type: binding
[12] = biological target: H-2 D^d (Mus musculus, UniProt P01900); assay type: binding
Sequence of H-2 D^d (P01900 whole entry, looked up): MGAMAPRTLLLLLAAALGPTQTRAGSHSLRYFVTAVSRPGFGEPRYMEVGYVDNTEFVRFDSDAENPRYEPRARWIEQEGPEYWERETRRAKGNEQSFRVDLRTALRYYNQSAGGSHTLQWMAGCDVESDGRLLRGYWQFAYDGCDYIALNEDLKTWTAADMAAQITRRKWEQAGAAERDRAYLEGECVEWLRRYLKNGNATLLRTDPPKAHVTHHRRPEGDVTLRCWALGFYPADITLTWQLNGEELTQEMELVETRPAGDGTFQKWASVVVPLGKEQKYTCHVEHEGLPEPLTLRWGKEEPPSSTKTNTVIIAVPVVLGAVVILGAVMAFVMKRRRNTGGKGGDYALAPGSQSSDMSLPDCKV

[13] = biological target: HLA B*2705 (Homo sapiens, UniProt P01889, D138H/D201E/E176V/E204Q/G107R/H137Y/K202T/N104T/N87E/Q56L/Q94K/R106L/R155S/R180L/S101D/S121N/S48T/Y140D/Y33H/Y91C); assay type: binding; conditions: positional scanning combinatorial 9-mer library; normalized to 1.0 for the best residue at each position
[14] = biological target: HLA B*5802 (Homo sapiens, UniProt P01889, A329T/C349S/D201E/D98Y/E176V/E187L/E204Q/E69T/G107R/I218V/I90N/K202T/L105A/N104I/N87E/Q89R/Q94S/R106L/R155S/R180L/R86G/S101N/S121W/S35A/S48A/V127L/V306I/V36M/Y140S/Y91M); assay type: binding
[15] = biological target: HLA B*5301 (Homo sapiens, UniProt P01889, A329T/A93T/A95T/C349S/D201E/D98Y/E176V/E187L/E204Q/E69T/G107R/I218V/K202T/L105A/L119I/N104I/Q94N/R106L/R155S/R180L/S101N/S121R/S35A/S48A/T118I/V127L/V306I/V36M/Y140S/Y91F); assay type: binding
[16] = biological target: HLA A*0201 (Homo sapiens, UniProt P04439, D140Y/D185E/D98H/E176V/E277Q/G131W/G231S/I119V/I121R/I166T/I218V/L300P/L318F/N151K/N90K/P208A/P217A/Q86G/Q94H/R138H/R169H/T345S); conditions: positional scanning combinatorial 9-mer library; normalized to 1.0 for the best residue at each position
[17] = biological target: HLA B*0702 (Homo sapiens, UniProt P01889); assay type: binding; conditions: positional scanning combinatorial 9-mer library; normalized to 1.0 for the best residue at each position
[18] = biological target: HLA B*3501 (Homo sapiens, UniProt P01889, A329T/A93T/A95T/C349S/D201E/D98Y/E176V/E187L/E204Q/E69T/I218V/K202T/L119I/Q94N/R155S/R180L/S121R/S35A/S48A/T118I/V127L/V306I/V36M/Y140S/Y91F); assay type: binding
[19] = biological target: H-2 K^d (Mus musculus, UniProt P01902); assay type: binding
Sequence of H-2 K^d (P01887 21-119): as the sequence (P01887 21-119) above
Sequence of H-2 K^d (P01902 22-368): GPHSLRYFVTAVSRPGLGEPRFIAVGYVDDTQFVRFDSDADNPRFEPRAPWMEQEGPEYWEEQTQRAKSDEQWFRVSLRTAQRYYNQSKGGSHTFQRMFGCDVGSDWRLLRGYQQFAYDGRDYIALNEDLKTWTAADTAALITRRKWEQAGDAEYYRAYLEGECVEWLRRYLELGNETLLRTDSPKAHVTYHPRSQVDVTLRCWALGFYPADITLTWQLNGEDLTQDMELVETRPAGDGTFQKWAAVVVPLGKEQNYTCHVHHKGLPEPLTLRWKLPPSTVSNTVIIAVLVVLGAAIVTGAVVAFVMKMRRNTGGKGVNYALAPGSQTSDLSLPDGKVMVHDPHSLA

Row | Sequence | Normalized average relative binding affinity (ARB), HLA B*0801 [1] | Normalized average relative binding affinity (ARB), HLA B*1503 [2] | Normalized average relative binding affinity (ARB), HLA B*5101 [3] | Normalized average relative binding affinity (ARB), HLA A*3201 [4] | Normalized average relative binding affinity(ARB) [1] | Normalized average relative binding affinity(ARB) [19] | Normalized average relative binding affinity(ARB) [2] | Normalized average relative binding affinity(ARB) [3] | Normalized average relative binding affinity(ARB) [4] | Normalized average relative binding affinity(ARB) [5] | Normalized average relative binding affinity(ARB) [6] | Normalized average relative binding affinity(ARB) [7] | Normalized average relative binding affinity(ARB) [8] | Normalized average relative binding affinity(ARB) [9] | Normalized average relative binding affinity(ARB) [10] | Normalized average relative binding affinity(ARB) [11] | Normalized average relative binding affinity(ARB) [12] | Normalized average relative binding affinity(ARB) [14] | Normalized average relative binding affinity(ARB) [15] | Normalized average relative binding affinity(ARB) [18] | further results
1 | AXXXXXXXX [3064.0001] | 0.11 | 0.47 | 0.071 | 0.36 |  |  |  |  |  |  |  |  |  |  |  |  |  |  |  |  | Normalized average relative binding affinity (ARB), HLA A*6802 [5]: 0.031; Normalized average relative binding affinity (ARB), H-2 Kk [6]: 0.18; Normalized average relative binding affinity (ARB), HLA B*5801 [7]: 0.33; Normalized average relative binding affinity (ARB), HLA A*3001 [8]: 0.18; Normalized average relative binding affinity (ARB), HLA B*1501 [9]: 0.31; Normalized average relative binding affinity (ARB), H-2 Db [10]: 0.14; Normalized average relative binding affinity (ARB), HLA B*5401 [11]: 0.014; Normalized average relative binding affinity (ARB), H-2 Dd [12]: 0.20; Normalized average relative binding affinity (ARB), HLA B*2705 [13]: 0.35; Normalized average relative binding affinity (ARB), HLA B*5802 [14]: 0.065; Normalized average relative binding affinity (ARB), HLA B*5301 [15]: 0.0057; Normalized average relative binding affinity (ARB), HLA A*0201 [16]: 0.11; Normalized average relative binding affinity (ARB), HLA B*0702 [17]: 0.78; Normalized average relative binding affinity (ARB), HLA B*3501 [18]: 0.042
2 | CXXXXXXXX [3064.0002] | 0.16 | 0.20 | 0.19 | 0.11 |  |  |  |  |  |  |  |  |  |  |  |  |  |  |  |  | Normalized average relative binding affinity (ARB), HLA A*6802 [5]: 0.13; Normalized average relative binding affinity (ARB), H-2 Kk [6]: 0.51; Normalized average relative binding affinity (ARB), HLA B*5801 [7]: 0.18; Normalized average relative binding affinity (ARB), HLA A*3001 [8]: 0.097; Normalized average relative binding affinity (ARB), HLA B*1501 [9]: 0.19; Normalized average relative binding affinity (ARB), H-2 Db [10]: 0.16; Normalized average relative binding affinity (ARB), HLA B*5401 [11]: 0.027; Normalized average relative binding affinity (ARB), H-2 Dd [12]: 0.26; Normalized average relative binding affinity (ARB), HLA B*2705 [13]: 0.11; Normalized average relative binding affinity (ARB), HLA B*5802 [14]: 0.048; Normalized average relative binding affinity (ARB), HLA B*5301 [15]: 0.061; Normalized average relative binding affinity (ARB), HLA A*0201 [16]: 0.032; Normalized average relative binding affinity (ARB), HLA B*0702 [17]: 0.19; Normalized average relative binding affinity (ARB), HLA B*3501 [18]: 0.19
3 | XXXXXXYXX [3064.0140] |  |  |  |  | 0.27 | 0.11 | 0.17 | 1.0 | 0.55 | 0.62 | 0.092 | 0.94 | 0.20 | 0.28 | 1.0 | 0.32 | 0.076 | 0.069 | 0.12 | 0.32 | 
4 | XXXXXYXXX [3064.0120] |  |  |  |  | 0.0094 | 0.26 | 0.40 | 0.097 | 0.38 | 0.43 | 0.35 | 1.0 | 0.21 | 0.20 | 0.68 | 0.19 | 0.83 | 0.64 | 1.0 | 0.061 | 
5 | XXXXYXXXX [3064.0100] |  |  |  |  | 0.064 | 0.015 | 0.34 | 0.26 | 0.28 | 0.27 | 0.14 | 0.33 | 0.21 | 0.95 | 0.013 | 0.084 | 0.24 | 0.62 | 0.087 | 0.22 | 
6 | XXXYXXXXX [3064.0080] |  |  |  |  | 0.59 | 0.14 | 0.55 | 0.88 | 0.71 | 0.44 | 0.24 | 0.27 | 0.42 | 0.41 | 0.63 | 0.26 | 1.0 | 0.49 | 0.29 | 0.085 | 
